The structures appear in SMILES notation. pEC50: −log10 of the molar value. A value given as a limit tells only on which side of the number the result lay.

In general, pEC50 refers to −log10 of the EC50, conventionally taken in molar units.

For assay [1], the system named is Wnt pathway (Sp5-Luc reporter, TCF/LEF binding sites) in SW480 colon carcinoma cells. As to the kind of experiment: Screening assay for Wnt activity: Sp5-Luc reporter gene assay.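 Note: firefly luciferase luminescence read in stably transduced SW480 cells carrying the Sp5 promoter reporter with eight TCF/LEF sites, compounds given in 0.1% DMSO final.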 Type of assay: cell-based, human. The conditions noted are these: Homo sapiens; Sp5-Luc reporter, SW480 cells, 36 to 48 hours.
Method: The screening assay for Wnt activity is described as follows.
Following incubation, 15 μl of BriteLite Plus luminescence reagent (Perkin Elmer) was added to each well of the 384-well assay plates. The plates were placed on an orbital shaker for 2 min and then luminescence was quantified using the Envision (Perkin Elmer) plate reader.
Assay [2] addresses recombinant DYRK1A kinase (Homo sapiens (Human), UniProt Q13627). As to the kind of experiment: DYRK1A kinase assay (Ser/Thr 18 peptide Z-lyte FRET).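 Note: Read-out is the coumarin to fluorescein emission ratio, referenced to unphosphorylated (0%) and phosphorylated (100%) Ser/Thr 18 peptide controls, values from dose-response curves by non-linear regression.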 Type of assay: biochemical. As to conditions: 30 μM ATP, 1 h room temperature.
Assay [3] deals with recombinant GSK3β kinase (Homo sapiens (Human), UniProt P49841). Briefly: GSK3β kinase assay (Ser/Thr 09 peptide Z-lyte FRET).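 Note: kinase activity read as coumarin to fluorescein emission ratio, 11-point threefold dilutions from 10 µM to 0.0003 µM in duplicate, unphosphorylated and phosphorylated peptide as 0% and 100% controls.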 In kind it is biochemical. The conditions noted are these: 46 μM ATP, 1 h room temperature.
recombinant GSK3β kinase, sequence (P49841 whole entry): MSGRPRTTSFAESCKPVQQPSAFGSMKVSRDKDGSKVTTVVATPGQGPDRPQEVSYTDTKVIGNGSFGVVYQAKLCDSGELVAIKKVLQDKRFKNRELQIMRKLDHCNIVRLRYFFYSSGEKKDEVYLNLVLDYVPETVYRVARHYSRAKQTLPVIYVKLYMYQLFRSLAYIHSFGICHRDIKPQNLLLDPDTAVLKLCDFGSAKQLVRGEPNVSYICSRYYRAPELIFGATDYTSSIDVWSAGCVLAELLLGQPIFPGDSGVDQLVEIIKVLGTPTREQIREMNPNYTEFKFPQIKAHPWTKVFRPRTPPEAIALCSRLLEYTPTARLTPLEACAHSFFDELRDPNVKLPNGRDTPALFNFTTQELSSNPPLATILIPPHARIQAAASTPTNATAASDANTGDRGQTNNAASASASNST
Assay [4] has as its system Tau phosphorylation at Ser396 (pSer396). As to the kind of experiment: Tau phosphorylation assay (pSer396 ELISA / western blot) in SH-SY5Y cells.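 Note: EC50 for reduction of Tau pSer396 in lysed cells, measured by colorimetric ELISA or chemiluminescent western blot, both using the same pSer396 antibody.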 Type of assay: cell-based, human. The conditions noted are these: Homo sapiens; SH-SY5Y cells, overnight (16-18 h) exposure; read-out: pSer396 Tau EC50. In general terms: ELISA stands for enzyme-linked immunosorbent assay.
The test system of assay [5] is SW480 colon carcinoma cells. Briefly: Cell viability assay (CellTiter-Glo). Type of assay: cell-based, human. The conditions noted are these: Homo sapiens; for pEC50: 96 h, SW480 cells, CellTiter-Glo, four days incubation.
Assay [6] concerns α-smooth muscle actin (αSMA) positive LL29 cells. As to the kind of experiment: Inhibition of fibrotic process: αSMA in TGF-β1 treated primary human fibroblasts from IPF patients.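 For all read-outs here: controls were TGF-β1 stimulated wells with DMSO vehicle (positive) and cells given DMSO alone (negative), cultured in F12 medium with 1% fetal bovine serum.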 The conditions noted are these: Homo sapiens, Fibroblast; for pEC50: 96 h, Table 8, LL29 fibroblasts from IPF patients, TGF-β1 20 ng/mL, 4 days, dose-response 10 μM to 0.94 nM. Type of assay: cell-based.

Assay [7] deals with IL-6. As to the kind of experiment: IL-6 inhibition in LPS-stimulated human peripheral blood mononuclear cells (HTRF).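 For all read-outs here: IL-6 detected by HTRF with an XL665- and Cryptate-labelled anti-IL-6 antibody pair, samples run in duplicate, EC50 obtained from a four-parameter Levenberg-Marquardt curve fit.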 The conditions noted are these: Homo sapiens, PBMC; for inhibition at 10 µM: read-out: percent value in parentheses beside EC50 >10 μM; for pEC50: Table 9, huPBMCs, LPS 50 ng/mL, 22 hours, dose-response starting from 10 μM. In kind it is cell-based. A general note: TR-FRET usually uses a lanthanide donor and a delayed reading to cut background.
Method: After 22 hour incubation, a mixture of anti-IL6 XL665 and anti-IL-6 Cryptate diluted in reconstitution buffer (Catalog #62IL6PEC, Cisbio Inc., Bedford, Mass.) was added to each well. […] All samples were processed in duplicate. […] EC50 was determined using software generated by Dotmatics Limited (Windhill Bishops Stortford Herts, UK) using the Levenberg-Marquardt 4 parameter fitting procedure with finite different gradients.

In assay [8] the test system is TNFα. Briefly: Secreted cytokines in lipopolysaccharide-stimulated BV-2 mouse microglial cells: TNFα. In kind it is cell-based. The conditions noted are these: BV-2 cells, compounds overnight, LPS 250 ng/mL 5 h. The method, then:
(§1) Representative compounds were screened using the cell-based assay procedure for secreted cytokines in a Lipopolysaccharide-stimulated mouse glial cell line described below.
(§2) BV-2 cells (mouse microglial cells) were cultured in 1:1 DMEM medium supplemented with 10% FBS, and 1% penicillin/streptomycin.
(§3) BV-2 cells are plated at 35,000 cells/well in a volume of 100 ul for at least 4 hours before compounds are added. DMSO-resuspended compounds were first dispensed in a 96 well plate and serial diluted from 10 μM to 4.6 nM final concentration in medium. Compounds were added to cells overnight. Two hundred fifty ng per milliliter of lipopolysaccharide (Escherichia coli O55:B5, SIGMA) was added for 5 h. Supernatant is removed and saved for further cytokine detection. The original plates with seeded cells were tested for cytotoxicity by measure of adenosine triphosphate (ATP) release by adding CellTiter-Glo® diluted 1:4 in distilled water (G7573, Promega) and transferring lysed cells to a completely black 96-well plate to be read with the Cytation3. Supernatant was then diluted 1:2 with a diluent from V-PLEX cytokine Kit and directly tested for the secreted cytokines TNFα, IL-6 and KC-GRO using electrochemiluminescence (Meso Scale Discovery). The standard curve for each cytokine was used to convert the electrochemiluminescent signal into pg of protein per mL.

The test system of assay [9] is IL-6. Briefly: Secreted cytokines in lipopolysaccharide-stimulated BV-2 mouse microglial cells: IL-6. Type of assay: cell-based. As to conditions: Mus musculus; BV-2 cells, compounds overnight, LPS 250 ng/mL 5 h. The protocol:
as §1, §2, §3

In assay [10] the test system is KC-GRO. Briefly: Secreted cytokines in lipopolysaccharide-stimulated BV-2 mouse microglial cells: KC-GRO. As to conditions: BV-2 cells, compounds overnight, LPS 250 ng/mL 5 h. In kind it is cell-based. The protocol:
as §1, §2, §3

In the case of `CN1CCN(CC(=O)Nc2cc3cc(-c4cn(C)nn4)ccc3cn2)CC1` [Compound 500, N-(6-(1-Methyl-1H-1,2,3-triazol-4-yl)isoquinolin-3-yl)-2-(4-methylpiperazin-1-yl)acetamide], the negative logarithm of the EC50 (pEC50) in [1] was 5.49; in [2] it was 7.97; in assay [3] it was 7.64; in [4], 6.41; in assay [5], below 5.00; in assay [6], 6.17. Further, the pEC50 is below 5.00 in [7], 5.92 in assay [8], 7.47 in assay [9] and 8.15 in [10]. Moreover, the inhibition at 10 µM in assay [5] (SW480, read-out: percent inhibition at 10 μM) was found to be 25.1%; in [7], 4%.

As to `CN1CCC(C(=O)Nc2cc3cc(-c4cnn(C)c4)c(F)cc3cn2)CC1` [Compound 966, N-(7-Fluoro-6-(1-methyl-1H-pyrazol-4-yl)isoquinolin-3-yl)-1-methylpiperidine-4-carboxamide], the negative logarithm of the EC50 (pEC50) in assay [1] is 5.80; in assay [2], 8.70; in assay [3], 7.49; in assay [4] it was 6.63; in assay [5], 6.59; in assay [6], 7.85. The pEC50 in assay [8] was 7.22; in assay [9], 7.66; in [10] it was 7.15.

In the case of `Cn1cc(-c2ccc3cnc(NC(=O)C4CCN(CC(C)(C)O)CC4)cc3c2)cn1` [Compound 1006, 1-(2-Hydroxy-2-methylpropyl)-N-(6-(1-methyl-1H-pyrazol-4-yl)isoquinolin-3-yl)piperidine-4-carboxamide], the negative logarithm of the EC50 (pEC50) is 6.15 in [1]; 8.52 in [2]; 7.30 in [3]; 6.53 in assay [4]; 6.23 in assay [5]; 7.21 in assay [6]. The pEC50 in assay [7] is 5.95; in assay [8], 7.62; in assay [9], 7.96; in [10], 7.57.

With `Cc1ncc(-c2ccc3cnc(NC(=O)[C@H]4CC[C@H](N(C)C)CC4)cc3c2)o1` [Compound 1017, trans-4-(dimethylamino)-N-(6-(2-methyloxazol-5-yl)isoquinolin-3-yl)cyclohexane-1-carboxamide], the negative logarithm of the EC50 (pEC50) in assay [1] was 6.21; in [2], 8.51; in [3] it was 7.12; in assay [4], 6.49; in [5], 6.18; in assay [6] it was 7.01. Also, the pEC50 in [7] is 6.18; in assay [8], 7.54; in [9], 7.62; in [10], 7.66.

`Cc1nnc(-c2ccc3cnc(NC(=O)C4CCN(CC(C)C)CC4)cc3c2)o1` [Compound 1020, 1-Isobutyl-N-(6-(5-methyl-1,3,4-oxadiazol-2-yl)isoquinolin-3-yl)piperidine-4-carboxamide]: the pEC50 in assay [1] was 5.94; in [2], 7.98; in assay [3], 7.89; in assay [4] it was 7.31; in assay [5], 5.99; in assay [6], below 5.00. The pEC50 was 5.93 in assay [7], 6.22 in [8], 7.06 in [9] and 6.15 in [10]. For the same molecule, the inhibition at 10 µM in [6] (read-out: percent value in parentheses beside EC50 >10 μM) stood at 30.6%.

As for `Cc1ncc(-c2ccc3cnc(NC(=O)[C@H]4CC[C@H](N5CCOCC5)CC4)cc3c2)o1` [Compound 1064, trans-N-(6-(2-methyloxazol-5-yl)isoquinolin-3-yl)-4-morpholinocyclohexane-1-carboxamide], the pEC50 in [1] was 5.39; in assay [2], 8.17; in assay [3], 6.90; in [4], 6.96; in assay [5], 5.31; in assay [7], 5.46. Also, the pEC50 is 7.52 in assay [8], 8.22 in assay [9] and 7.85 in [10].

Consider `CN1CCC(C(=O)Nc2cc3cc(-c4nnc(N(C)C)o4)ccc3cn2)CC1` [Compound 1076, N-(6-(5-(dimethylamino)-1,3,4-oxadiazol-2-yl)isoquinolin-3-yl)-1-methylpiperidine-4-carboxamide], for which the pEC50 is 6.19 in [1]; 8.08 in assay [2]; 7.96 in assay [3]; 7.39 in assay [4]; 5.80 in assay [5]; below 5.00 in assay [7]. The pEC50 in assay [8] is 5.74; in [9], 8.10; in assay [10], 6.54. The inhibition at 10 µM in assay [7] stood at 3%.
